Legend:
[1] = molecular target: Signal transducer and activator of transcription 3 (Homo sapiens, UniProt P40763); experiment: Inhibition of STAT3 in human HEK293T cells assessed as inhibition of IL-6 stimulated STAT3 phosphorylation by dual-luciferase reporter assay; type: cell-based
[2] = test system: BXPC-3; experiment: Anti-proliferative activity against human BXPC-3 cells assessed as cell growth inhibition incubated for 72 hrs by MTS assay; type: functional, cell-based; conditions: BXPC-3, 72 h
[3] = test system: Capan-2; experiment: Anti-proliferative activity against human Capan-2 cells assessed as cell growth inhibition incubated for 72 hrs by MTS assay; type: functional, cell-based; conditions: Capan-2, 72 h
[4] = Inhibition of ATP production in human BXPC-3 cells incubated for 20 to 24 hrs by ATP assay kit method; type: functional, cell-based

Chain of Signal transducer and activator of transcription 3 (P40763 whole entry): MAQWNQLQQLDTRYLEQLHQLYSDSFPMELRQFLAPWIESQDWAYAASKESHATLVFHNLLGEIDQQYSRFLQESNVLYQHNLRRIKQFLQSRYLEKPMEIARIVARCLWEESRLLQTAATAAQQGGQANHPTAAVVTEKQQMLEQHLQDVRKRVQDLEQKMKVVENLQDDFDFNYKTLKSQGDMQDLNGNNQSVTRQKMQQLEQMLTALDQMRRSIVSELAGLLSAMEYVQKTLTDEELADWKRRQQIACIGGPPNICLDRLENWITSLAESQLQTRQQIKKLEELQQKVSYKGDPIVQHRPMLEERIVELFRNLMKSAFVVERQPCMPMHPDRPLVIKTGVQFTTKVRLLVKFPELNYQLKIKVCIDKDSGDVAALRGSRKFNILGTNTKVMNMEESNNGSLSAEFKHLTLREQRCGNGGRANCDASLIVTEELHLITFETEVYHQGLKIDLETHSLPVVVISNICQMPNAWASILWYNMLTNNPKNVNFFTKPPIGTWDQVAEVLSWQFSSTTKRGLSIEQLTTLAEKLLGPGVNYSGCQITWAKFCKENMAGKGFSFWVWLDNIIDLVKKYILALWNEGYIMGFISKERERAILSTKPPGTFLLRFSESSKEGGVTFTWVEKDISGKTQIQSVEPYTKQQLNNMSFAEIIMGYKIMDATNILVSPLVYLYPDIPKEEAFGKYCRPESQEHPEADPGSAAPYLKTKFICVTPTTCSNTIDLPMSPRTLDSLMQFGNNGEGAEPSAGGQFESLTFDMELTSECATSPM

SMILES	IC50 [1]	IC50 [2]	IC50 [4]	IC50 [3]
Cn1c(C(=O)N2CCN(C(=O)CCl)CC2)cc2ccc(Oc3cnc(-c4nc(-c5ccc(C(F)(F)F)cc5)no4)cn3)cc21	> 1000 nM			
O=C(c1cc2ccc(Oc3cnc(-c4nc(-c5ccc(C(F)(F)F)cc5)no4)cn3)cc2n1Cc1ccccc1)N1CCN(Cc2ccc(OCC(F)(F)F)cc2)CC1	> 1000 nM			
Cn1c(C(=O)N2CCN(Cc3ccccc3OCC(F)(F)F)CC2)cc2ccc(Oc3cnc(-c4nc(-c5ccc(C(F)(F)F)cc5)no4)cn3)cc21	> 1000 nM			
Cn1c(C(=O)N2CCN(Cc3ccc(Br)cc3)CC2)cc2ccc(Oc3cnc(-c4nc(-c5ccc(C(F)(F)F)cc5)no4)cn3)cc21	836 nM			
Cn1c(C(=O)N2CCN(C(=O)c3ccc(OCC(F)(F)F)cc3)CC2)cc2ccc(Oc3cnc(-c4nc(-c5ccc(C(F)(F)F)cc5)no4)cn3)cc21	> 1000 nM			
C=CCn1c(C(=O)N2CCN(Cc3ccc(OCC(F)(F)F)cc3)CC2)cc2ccc(Oc3cnc(-c4nc(-c5ccc(C(F)(F)F)cc5)no4)cn3)cc21	> 1000 nM			
COC(=O)CN1CCN(C(=O)c2cc3ccc(Oc4cnc(-c5nc(-c6ccc(C(F)(F)F)cc6)no5)cn4)cc3n2C)CC1	> 1000 nM			
Cc1cccc(CN2CCN(C(=O)c3cc4ccc(Oc5cnc(-c6nc(-c7ccc(C(F)(F)F)cc7)no6)cn5)cc4n3C)CC2)c1	> 1000 nM			
CCCN1CCN(C(=O)c2cc3ccc(Oc4cnc(-c5nc(-c6ccc(C(F)(F)F)cc6)no5)cn4)cc3n2C)CC1	800 nM			
Cn1c(C(=O)N2CCN(Cc3ccc(Cl)cc3)CC2)cc2ccc(Oc3cnc(-c4nc(-c5ccc(C(F)(F)F)cc5)no4)cn3)cc21	649 nM			
Cc1ccc(CN2CCN(C(=O)c3cc4ccc(Oc5cnc(-c6nc(-c7ccc(C(F)(F)F)cc7)no6)cn5)cc4n3C)CC2)cc1	492 nM			
CCN1CCN(C(=O)c2cc3ccc(Oc4cnc(-c5nc(-c6ccc(C(F)(F)F)cc6)no5)cn4)cc3n2C)CC1	1110 nM	1.9 nM	1.6 nM	1 nM
COC(=O)Cn1c(C(=O)N2CCN(Cc3ccc(OCC(F)(F)F)cc3)CC2)cc2ccc(Oc3cnc(-c4nc(-c5ccc(C(F)(F)F)cc5)no4)cn3)cc21	> 1000 nM			
CC(C)C(=O)n1c(C(=O)N2CCN(Cc3ccc(OCC(F)(F)F)cc3)CC2)cc2ccc(Oc3cnc(-c4nc(-c5ccc(C(F)(F)F)cc5)no4)cn3)cc21	337 nM			
COc1ccc(CN2CCN(C(=O)c3cc4ccc(Oc5cnc(-c6nc(-c7ccc(C(F)(F)F)cc7)no6)cn5)cc4n3C)CC2)cc1F	134 nM			
Cn1c(C(=O)N2CCN(Cc3ccc(OCC(F)(F)F)c(F)c3)CC2)cc2ccc(Oc3cnc(-c4nc(-c5ccc(C(F)(F)F)cc5)no4)cn3)cc21	101 nM		117 nM	
Cn1c(C(=O)N2CCN(Cc3ccc(F)cc3)CC2)cc2ccc(Oc3cnc(-c4nc(-c5ccc(C(F)(F)F)cc5)no4)cn3)cc21	427 nM			
CCCn1c(C(=O)N2CCN(Cc3ccc(OCC(F)(F)F)cc3)CC2)cc2ccc(Oc3cnc(-c4nc(-c5ccc(C(F)(F)F)cc5)no4)cn3)cc21	613 nM			
Cn1c(C(=O)N2CCN(Cc3cccc(C(F)(F)F)c3)CC2)cc2ccc(Oc3cnc(-c4nc(-c5ccc(C(F)(F)F)cc5)no4)cn3)cc21	> 1000 nM			
Cn1c(C(=O)N2CCN(Cc3ccc(OCC(F)(F)F)cc3)CC2)cc2ccc(Oc3cnc(-c4nc(-c5ccccc5)no4)cn3)cc21	217 nM			
Cn1c(C(=O)N2CCN(C(=O)c3ccc(C(F)(F)F)cc3)CC2)cc2ccc(Oc3cnc(-c4nc(-c5ccc(C(F)(F)F)cc5)no4)cn3)cc21	> 1000 nM			
CCn1c(C(=O)N2CCN(Cc3ccc(OCC(F)(F)F)cc3)CC2)cc2ccc(Oc3cnc(-c4nc(-c5ccc(C(F)(F)F)cc5)no4)cn3)cc21	167 nM			
Cn1c(C(=O)N2CCN(Cc3cccc(OCC(F)(F)F)c3)CC2)cc2ccc(Oc3cnc(-c4nc(-c5ccc(C(F)(F)F)cc5)no4)cn3)cc21	> 1000 nM			
CN1CCN(C(=O)c2cc3ccc(Oc4cnc(-c5nc(-c6ccc(C(F)(F)F)cc6)no5)cn4)cc3n2C)CC1	> 1000 nM			
Cn1c(C(=O)N2CCN(CCc3ccccc3)CC2)cc2ccc(Oc3cnc(-c4nc(-c5ccc(C(F)(F)F)cc5)no4)cn3)cc21	595 nM			
CCOC(=O)Cn1c(C(=O)N2CCN(Cc3ccc(OCC(F)(F)F)cc3)CC2)cc2ccc(Oc3cnc(-c4nc(-c5ccc(C(F)(F)F)cc5)no4)cn3)cc21	> 1000 nM			

These reach a lower IC50 [1]. Values come first.

IC50 [1]	IC50 [2]	IC50 [4]	SMILES	IC50 [3]
45.5 nM	1.3 nM	56.5 nM	COc1ccccc1-c1noc(-c2cnc(Oc3ccc4cc(C(=O)N5CCN(Cc6ccc(OCC(F)(F)F)cc6)CC5)n(C)c4c3)cn2)n1	8.6 nM
30.5 nM		25 nM	O=C(c1cc2ccc(Oc3cnc(-c4nc(-c5ccc(C(F)(F)F)cc5)no4)cn3)cc2[nH]1)N1CCN(Cc2ccc(OCC(F)(F)F)cc2)CC1	
76.1 nM			Cn1c(C(=O)N2CCN(Cc3ccc(OC(F)(F)F)cc3)CC2)cc2ccc(Oc3cnc(-c4nc(-c5ccc(C(F)(F)F)cc5)no4)cn3)cc21	
63.6 nM			COc1ccc(CN2CCN(C(=O)c3cc4ccc(Oc5cnc(-c6nc(-c7ccc(C(F)(F)F)cc7)no6)cn5)cc4n3C)CC2)cc1	
19.8 nM	1.5 nM	12.6 nM	COc1cccc(-c2noc(-c3cnc(Oc4ccc5cc(C(=O)N6CCN(Cc7ccc(OCC(F)(F)F)cc7)CC6)n(C)c5c4)cn3)n2)c1	6.5 nM
72.4 nM		102 nM	Cn1c(C(=O)N2CCN(Cc3ccc(C(F)(F)F)cc3)CC2)cc2ccc(Oc3cnc(-c4nc(-c5ccc(C(F)(F)F)cc5)no4)cn3)cc21	
38.3 nM	1.9 nM	19.9 nM	Cn1c(C(=O)N2CCN(Cc3ccc(OCC(F)(F)F)cc3)CC2)cc2ccc(Oc3cnc(-c4nc(-c5cccc(F)c5)no4)cn3)cc21	5 nM
35.7 nM	4.8 nM	25.8 nM	Cn1c(C(=O)N2CCN(Cc3ccc(OCC(F)(F)F)cc3)CC2)cc2ccc(Oc3cnc(-c4nc(-c5ccc(Cl)cc5)no4)cn3)cc21	12.6 nM
28.1 nM	2.7 nM	14.3 nM	Cn1c(C(=O)N2CCN(Cc3ccc(OCC(F)(F)F)cc3)CC2)cc2ccc(Oc3cnc(-c4nc(-c5ccc(Br)cc5)no4)cn3)cc21	9.3 nM
22.3 nM	3.3 nM	32.5 nM	Cn1c(C(=O)N2CCN(Cc3ccc(OCC(F)(F)F)cc3)CC2)cc2ccc(Oc3cnc(-c4nc(-c5ccc(C(F)(F)F)cc5)no4)cn3)cc21	8.6 nM
13.1 nM	1.7 nM	16.5 nM	Cn1c(C(=O)N2CCN(Cc3ccc(OCC(F)(F)F)cc3)CC2)cc2ccc(Oc3cnc(-c4nc(-c5ccccc5F)no4)cn3)cc21	7.7 nM
39.2 nM	11.4 nM	10.5 nM	Cn1c(C(=O)N2CCN(Cc3ccc(OCC(F)(F)F)cc3)CC2)cc2ccc(Oc3cnc(-c4nc(-c5ccc(OC(F)(F)F)cc5)no4)cn3)cc21	6.4 nM
39.9 nM		93.2 nM	COCCn1c(C(=O)N2CCN(Cc3ccc(OCC(F)(F)F)cc3)CC2)cc2ccc(Oc3cnc(-c4nc(-c5ccc(C(F)(F)F)cc5)no4)cn3)cc21	

From ChEMBL document CHEMBL5096221, “Discovery of a Highly Potent and Orally Bioavailable STAT3 Dual Phosphorylation Inhibitor for Pancreatic Cancer Treatment” (J Med Chem, 2022)
